Results taken from patent US20140243292A1, “SUBSITUTED 2-(CHROMAN-6-YLOXYL)-THIAZOLES AND THEIR USE AS PHARMACEUTICALS” (Sanofi, priority 2011, published 2014).
Structures can show the parent of a compound that is named as a salt.

target: T1, human NCX1 (Homo sapiens, UniProt P32418); assay: NCX1 inhibition, reverse mode (Ca2+ influx into cells), FLIPR Fluo-4 assay; format: cell-based; conditions: inhibition of NCX1 in reverse mode (Ca2+ influx into cells); read-out: NCX1rv IC50
T1 construct: expressed in transfected cells
Source text: The sodium/calcium exchanger NCX1 can transport calcium ions and sodium ions through the cell membrane. The transport is an exchange of Ca^2+ and Na^+ in two directions depending on membrane potential and ion gradients. At the first direction, named “forward mode” or “calcium export mode”, Ca^2+ is transported out of the cell and Na^+ is transported into the cell. At the other direction, named “reverse mode” or “calcium import mode”, the transport directions are vice versa. The effect of the compounds of the invention on NCX1 was determined in CHO cells stably expressing human NCX1 (gene symbol SLC8A1; cf. WO 2009/115238). The assay is based on the monitoring of intracellular Ca^2+ concentrations using a calcium-sensitive fluorescence dye which is detected by means of a FLIPR device (Fluorimetric Imaging Plate Reader, Molecular Devices).
The assay is based on the monitoring of intracellular Ca^2+ concentrations using the calcium-sensitive dye Fluo-4. CHO cells expressing NCX1 were loaded with the dye by means of the acetoxymethyl ester Fluo-4 AM (Invitrogen, F14202), which is cleaved intracellularly by esterase activity to yield the charged species of free Fluo-4. After an preincubation period with the test compound, Gramicidine (Sigma, G5002) was added. Gramicidine is an ionophor for Na^+ ions mediating an increase of intracellular Na^+ ions. Consequently, intracellular Na^+ ions are exchanged against extracellular Ca^2+ ions (Ca^2+ influx, reverse mode). The intracellular elevation of Ca^2+ ions was detected by measuring the fluorescence of Fluo-4 at a wavelength of 520 nm by a FLIPR device.
Briefly, for the reverse mode transport assay 18000 cells per well were seeded into a 96 well microplate (Corning COSTAR 3904) and incubated overnight in culture medium (1× Nut Mix F12 (Ham) (Gibco, 21765-029); 10% (v/v) fetal calf serum (PAA Gold, A15-649); 450 μg/ml Geneticin (Gibco, 10131-027)). A total volume of 100 μl medium per well was used. For the preparation of the FLIPR assay, the culture medium was removed from the plates and 100 μl of dye solution (2 μM Fluo-4 AM; 0.02% (v/v) Pluronic F-127 (20%, Invitrogen, P3000MP); 0.1% (v/v) bovine albumin solution (30% (v/v), Sigma, A9205) in assay buffer (133.8 mM NaCl (Sigma, S5886); 4.7 mM KCl (Sigma, P3911); 1.25 mM MgCl2 (Merck, 1.05833.0250); 3.5 mM CaCl2 (Merck, 1.02083.0250); 5 mM glucose (Sigma, G7021); 10 mM Hepes (Sigma, H4034); 0.01% (v/v) Pluronic F-127 (5%, Sigma, P2443); 2.5 mM Probenecid (Maybridge, SB00915EB); pH 7.4)) were added into each well. The plates were incubated in the dark at room temperature for 80 min. After the incubation period, the dye solution was removed and the wells were washed with 100 μl of assay buffer. Then 80 μl of a solution of the test compound in assay buffer in different concentrations were added into the wells. The plates were incubated at 16° C. for 45 min. Meanwhile a 60 μM solution of Gramicidine in assay buffer (4° C.) was prepared and stored in the wells of a 96 well microplate (96 well microplate, polypropylene, U-shape (Greiner Bio-One, 650201)) at 4° C. until measurement was started. The fluorescence monitoring was performed at 240 measuring points with measurement intervals of 2 sec. After the fifth measuring point, 40 μl of the Gramicidine solution were added to each well of the assay plates to give a final Gramicidine concentration of 20 μM. For the determination of the IC50 values the minimal fluorescence value was subtracted from the maximal fluorescence value for all measuring points. The calculation of the IC50 values via the percentage inhibitions of Ca^2+ influx into cells (reverse mode) effected by the test compound was performed in Biost@t Speed 2.0.

Row | SMILES | IC50 [nM]
1 | Cc1noc(C)c1C(=O)NCc1cnc(Oc2ccc3c(c2)CCC(c2ccccc2)O3)s1 (centres unmarked) [compound 65] | 200
2 | Cc1nn(C)c(C)c1C(=O)NCc1cnc(Oc2ccc3c(c2)CCC(c2ccccc2)O3)s1 (centres unmarked) [compound 67] | 300
3 | Cc1ncoc1C(=O)NCc1cnc(Oc2ccc3c(c2)CCC(c2ccccc2)O3)s1 (centres unmarked) [compound 69] | 500
4 | CCn1nccc1C(=O)NCc1cnc(Oc2ccc3c(c2)CCC(c2ccccc2)O3)s1 (centres unmarked) [compound 70] | 300
5 | Cc1c(C(=O)NCc2cnc(Oc3ccc4c(c3)CCC(c3ccccc3)O4)s2)cnn1C (centres unmarked) [compound 71] | 700
6 | CCn1cc(C(=O)NCc2cnc(Oc3ccc4c(c3)CCC(c3ccccc3)O4)s2)cn1 (centres unmarked) [compound 72] | 300
7 | Cc1nc(C(=O)NCc2cnc(Oc3ccc4c(c3)CCC(c3ccccc3)O4)s2)cs1 (centres unmarked) [compound 73] | 300
8 | Cc1ccn(CC(=O)NCc2cnc(Oc3ccc4c(c3)CCC(c3ccccc3)O4)s2)n1 (centres unmarked) [compound 74] | 300
9 | O=C(NCc1cnc(Oc2ccc3c(c2)CCC(c2ccccc2)O3)s1)c1ccnc(N2CCCCC2)c1 (centres unmarked) [compound 75] | 9800
10 | Cc1noc(C)c1CC(=O)NCc1cnc(Oc2ccc3c(c2)CCC(c2ccccc2)O3)s1 (centres unmarked) [compound 77] | 400
11 | Cc1nc(C)c(C(=O)NCc2cnc(Oc3ccc4c(c3)CCC(c3ccccc3)O4)s2)o1 (centres unmarked) [compound 78] | 300
12 | O=C(NCc1cnc(Oc2ccc3c(c2)CCC(c2ccccc2)O3)s1)c1ccnc(N2CCOCC2)c1 (centres unmarked) [compound 83] | 2100
13 | O=C(CCn1cccn1)NCc1cnc(Oc2ccc3c(c2)CCC(c2ccccc2)O3)s1 (centres unmarked) [compound 90] | 600
14 | Cc1cc(C(=O)NCc2cnc(Oc3ccc4c(c3)CCC(c3ccccc3)O4)s2)nc(C)n1 (centres unmarked) [compound 91] | 5300
15 | O=C(Cn1cccn1)NCc1cnc(Oc2ccc3c(c2)CCC(c2ccccc2)O3)s1 (centres unmarked) [compound 92] | 1100
16 | CCn1ccc(C(=O)NCc2cnc(Oc3ccc4c(c3)CCC(c3ccccc3)O4)s2)n1 (centres unmarked) [compound 93] | 500
17 | Cc1noc(C)c1CCC(=O)NCc1cnc(Oc2ccc3c(c2)CCC(c2ccccc2)O3)s1 (centres unmarked) [compound 94] | 900
18 | O=C(CN1C(=O)CNC1=O)NCc1cnc(Oc2ccc3c(c2)CCC(c2ccccc2)O3)s1 (centres unmarked) [compound 95] | 600
19 | CCCCN(C)Cc1cnc(Oc2ccc3c(c2)CCC(c2ccccc2)O3)s1 (centres unmarked) [compound 99] | 700
20 | C[C@@H]1CN(Cc2cnc(Oc3ccc4c(c3)CCC(c3ccccc3)O4)s2)C[C@H](C)O1 (some centres unmarked) [compound 100] | 1000

Row | SMILES | IC50 [nM]
21 | CC(C)CNCc1cnc(Oc2ccc3c(c2)CCC(c2ccccc2)O3)s1 (centres unmarked) [compound 101] | 400
22 | CN1CCN(Cc2cnc(Oc3ccc4c(c3)CCC(c3ccccc3)O4)s2)CC1=O (centres unmarked) [compound 102] | 400
23 | c1ccc(C2CCc3cc(Oc4ncc(CN5CCCC5)s4)ccc3O2)cc1 (centres unmarked) [compound 104] | 400
24 | CC(NCc1cnc(Oc2ccc3c(c2)CCC(c2ccccc2)O3)s1)C(C)(C)C (centres unmarked) [compound 105] | 800
25 | CCC(CC)NCc1cnc(Oc2ccc3c(c2)CCC(c2ccccc2)O3)s1 (centres unmarked) [compound 106] | 500
26 | FC(F)(F)CNCc1cnc(Oc2ccc3c(c2)CCC(c2ccccc2)O3)s1 (centres unmarked) [compound 107] | 200
27 | c1ccc(C2CCc3cc(Oc4ncc(CN5CC6CCC(CC6)C5)s4)ccc3O2)cc1 (centres unmarked) [compound 108] | 1400
28 | FC1(F)CCN(Cc2cnc(Oc3ccc4c(c3)CCC(c3ccccc3)O4)s2)CC1 (centres unmarked) [compound 109] | 700
29 | c1ccc(C2CCc3cc(Oc4ncc(CNC5CCC5)s4)ccc3O2)cc1 (centres unmarked) [compound 110] | 200
30 | Cc1cc(NCc2cnc(Oc3ccc4c(c3)CCC(c3ccccc3)O4)s2)on1 (centres unmarked) [compound 111] | 800
31 | CCC(C)(C)NCc1cnc(Oc2ccc3c(c2)CCC(c2ccccc2)O3)s1 (centres unmarked) [compound 112] | 300
32 | CC(C)NCc1cnc(Oc2ccc3c(c2)CCC(c2ccccc2)O3)s1 (centres unmarked) [compound 113] | 300
33 | COCCNCc1cnc(Oc2ccc3c(c2)CCC(c2ccccc2)O3)s1 (centres unmarked) [compound 114] | 200
34 | CC(C)CCNCc1cnc(Oc2ccc3c(c2)CCC(c2ccccc2)O3)s1 (centres unmarked) [compound 115] | 600
35 | CCCNCc1cnc(Oc2ccc3c(c2)CCC(c2ccccc2)O3)s1 (centres unmarked) [compound 116] | 200
36 | c1ccc(C2CCc3cc(Oc4ncc(CN5CCOCC5)s4)ccc3O2)cc1 (centres unmarked) [compound 117] | 300
37 | CC(C)(C)NCc1cnc(Oc2ccc3c(c2)CCC(c2ccccc2)O3)s1 (centres unmarked) [compound 118] | 400
38 | CN(C)Cc1cnc(Oc2ccc3c(c2)CCC(c2ccccc2)O3)s1 (centres unmarked) [compound 119] | 400
39 | c1ccc(C2CCc3cc(Oc4ncc(CNCC5CC5)s4)ccc3O2)cc1 (centres unmarked) [compound 120] | 300

Further lines, results first:

Row | IC50 [nM] | SMILES
40 | 200 | O=C(NCCc1ccncc1)c1cnc(Oc2ccc3c(c2)CCC(c2ccccc2)O3)s1 (centres unmarked) [compound 61, hydrochloride]
41 | 300 | Cc1c(CNC(=O)c2cnc(Oc3ccc4c(c3)CC[C@@H](c3ccccc3)O4)s2)cnn1C [compound 62]
42 | 600 | Cc1c(CNC(=O)c2cnc(Oc3ccc4c(c3)CC[C@H](c3ccccc3)O4)s2)cnn1C [compound 63]
43 | 1300 | Cc1ccc(C(=O)NCc2cnc(Oc3ccc4c(c3)CCC(c3ccccc3)O4)s2)cn1 (centres unmarked) [compound 64]
44 | 600 | Cc1cc(C(=O)NCc2cnc(Oc3ccc4c(c3)CCC(c3ccccc3)O4)s2)n(C)n1 (centres unmarked) [compound 66]
45 | 800 | O=C(NCc1cnc(Oc2ccc3c(c2)CCC(c2ccccc2)O3)s1)c1ccnc(Cl)c1 (centres unmarked) [compound 68]
46 | 5600 | COc1cc(C(=O)NCc2cnc(Oc3ccc4c(c3)CCC(c3ccccc3)O4)s2)ccn1 (centres unmarked) [compound 76]
47 | 200 | O=C(NCc1cnc(Oc2ccc3c(c2)CCC(c2ccccc2)O3)s1)c1ccncc1 (centres unmarked) [compound 79]
48 | 200 | O=C(NCc1cnc(Oc2ccc3c(c2)CCC(c2ccccc2)O3)s1)c1ccncc1Cl (centres unmarked) [compound 80]
49 | 1100 | O=C(NCc1cnc(Oc2ccc3c(c2)CCC(c2ccccc2)O3)s1)c1ccncc1F (centres unmarked) [compound 81]
50 | 400 | Cc1cc(C(=O)NCc2cnc(Oc3ccc4c(c3)CCC(c3ccccc3)O4)s2)ccn1 (centres unmarked) [compound 82]
51 | 300 | Cc1cc(C(=O)NCc2cnc(Oc3ccc4c(c3)CCC(c3ccccc3)O4)s2)on1 (centres unmarked) [compound 84]
52 | 10900 | Nc1cc(C(=O)NCc2cnc(Oc3ccc4c(c3)CCC(c3ccccc3)O4)s2)ccn1 (centres unmarked) [compound 85]
53 | 300 | Cn1nccc1C(=O)NCc1cnc(Oc2ccc3c(c2)CCC(c2ccccc2)O3)s1 (centres unmarked) [compound 86]
54 | 400 | O=C(NCc1cnc(Oc2ccc3c(c2)CCC(c2ccccc2)O3)s1)c1ncccn1 (centres unmarked) [compound 87]
55 | 5000 | O=C(NCc1cnc(Oc2ccc3c(c2)CCC(c2ccccc2)O3)s1)c1ccnc(O)c1 (centres unmarked) [compound 88]
56 | 200 | O=C(NCc1cnc(Oc2ccc3c(c2)CCC(c2ccccc2)O3)s1)c1ccncn1 (centres unmarked) [compound 89]
57 | 800 | CC(C)Oc1cccc(C2CCc3cc(Oc4ncc(C(=O)NCc5ccncc5)s4)ccc3O2)c1 (centres unmarked) [compound 96]
58 | 1200 | Cc1noc(C)c1CCNC(=O)c1cnc(Oc2ccc3c(c2)CCC(c2cccc(OC(C)C)c2)O3)s1 (centres unmarked) [compound 97]
59 | 300 | Cc1nc(Oc2ccc3c(c2)CC[C@@H](c2ccccc2)O3)sc1C(=O)NCc1ccncc1 [compound 98, hydrochloride]
